Experimental data reported in patent US20250109121A1, “POTENT AND SELECTIVE SMARCA2 DEGRADING CHIMERIC MOLECULES AS CANCER THERAPEUTICS” (BOARD OF REGENTS, THE UNIVERSITY OF TEXAS SYSTEM, priority 2021, published 2025).
Like-named read-outs stand apart in the source and are kept apart here.

How the values were obtained:
[1] = tested on: HCC2279; test: Cell proliferation (colony assay) IC50; format: cell-based; settings: HCC2279, wild-type SMARCA4
[2] = tested on: wild-type SMARCA4 cells; test: Colony assay / cell proliferation, wild-type SMARCA4 cell lines as a group; format: cell-based
Description: (§1) Cell lines with wild-type SMARCA4 (HCC44, H2122, H1792 and H1975) and cell lines with mutant SMARCA4 (H1693, HCC515, H322, and H1299) were seeded in appropriate dilutions to form colonies in about 1-3 weeks. Cells were treated with ACBI1 or Compound 101 at concentrations of 0.001, 0.01, 0.1, 1, and 10 μm. Colonies were fixed with glutaraldehyde (6% v/v), stained with crystal violet (0.5% w/v) and the percent area of colonies was determined (FIGS. 3A and 3B). In cell lines with wild-type SMARCA4, inhibition of colony growth was more pronounced after treatment with ACBI1 than Compound 101 (FIG. 3A).

[3] = biological target: SMARCA4 (Homo sapiens, UniProt P51532); test: SMARCA4 degradation in cell lines, western blot; format: cell-based
Sequence of SMARCA4 (P51532 whole entry): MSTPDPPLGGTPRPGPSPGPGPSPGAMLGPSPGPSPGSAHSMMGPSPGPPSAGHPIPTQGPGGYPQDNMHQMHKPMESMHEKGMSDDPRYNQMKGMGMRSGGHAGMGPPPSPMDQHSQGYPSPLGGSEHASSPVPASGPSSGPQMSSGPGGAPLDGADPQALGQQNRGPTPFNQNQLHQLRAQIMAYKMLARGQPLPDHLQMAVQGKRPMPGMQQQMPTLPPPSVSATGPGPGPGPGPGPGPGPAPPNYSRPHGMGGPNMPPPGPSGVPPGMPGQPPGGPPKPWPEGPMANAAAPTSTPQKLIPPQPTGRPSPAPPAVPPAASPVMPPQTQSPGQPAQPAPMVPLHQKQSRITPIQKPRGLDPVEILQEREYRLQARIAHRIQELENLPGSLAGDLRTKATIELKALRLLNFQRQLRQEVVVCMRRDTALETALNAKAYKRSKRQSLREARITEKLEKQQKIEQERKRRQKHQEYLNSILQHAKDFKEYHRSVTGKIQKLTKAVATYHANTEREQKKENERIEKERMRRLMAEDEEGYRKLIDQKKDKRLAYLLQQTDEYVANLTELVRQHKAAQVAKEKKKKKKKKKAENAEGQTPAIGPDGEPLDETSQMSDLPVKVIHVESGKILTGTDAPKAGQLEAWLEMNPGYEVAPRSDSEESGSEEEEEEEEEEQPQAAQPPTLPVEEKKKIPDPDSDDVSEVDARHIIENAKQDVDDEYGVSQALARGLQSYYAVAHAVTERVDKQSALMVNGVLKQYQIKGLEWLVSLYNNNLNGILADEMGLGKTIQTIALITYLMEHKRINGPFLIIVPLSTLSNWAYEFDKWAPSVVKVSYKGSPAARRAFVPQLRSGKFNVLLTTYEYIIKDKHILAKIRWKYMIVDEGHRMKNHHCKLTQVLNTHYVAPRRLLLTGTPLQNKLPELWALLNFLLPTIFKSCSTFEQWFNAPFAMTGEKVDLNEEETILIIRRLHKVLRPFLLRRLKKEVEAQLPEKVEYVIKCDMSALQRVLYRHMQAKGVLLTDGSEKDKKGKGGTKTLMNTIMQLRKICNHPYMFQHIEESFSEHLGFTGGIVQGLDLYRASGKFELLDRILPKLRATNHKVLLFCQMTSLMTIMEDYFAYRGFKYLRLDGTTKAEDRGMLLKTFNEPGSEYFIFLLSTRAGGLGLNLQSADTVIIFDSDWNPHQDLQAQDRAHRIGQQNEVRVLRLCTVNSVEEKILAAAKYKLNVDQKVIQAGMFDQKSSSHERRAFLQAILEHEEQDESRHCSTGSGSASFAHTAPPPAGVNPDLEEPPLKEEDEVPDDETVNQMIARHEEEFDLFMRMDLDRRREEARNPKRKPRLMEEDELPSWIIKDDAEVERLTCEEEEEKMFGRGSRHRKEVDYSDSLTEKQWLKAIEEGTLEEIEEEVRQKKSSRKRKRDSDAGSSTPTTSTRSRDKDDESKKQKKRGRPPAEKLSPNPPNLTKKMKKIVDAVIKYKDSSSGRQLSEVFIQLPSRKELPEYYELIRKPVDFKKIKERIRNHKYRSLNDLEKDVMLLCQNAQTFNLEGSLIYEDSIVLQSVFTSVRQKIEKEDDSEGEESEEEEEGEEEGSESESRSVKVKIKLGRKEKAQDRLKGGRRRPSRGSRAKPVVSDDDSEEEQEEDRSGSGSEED

[4] = tested on: HCC827; test: Cell proliferation (colony assay) IC50; format: cell-based; settings: Homo sapiens; HCC827, wild-type SMARCA4
[5] = tested on: HCC515 lung cancer xenograft; test: In vivo anti-tumor efficacy, HCC515 lung cancer xenograft model; settings: female NCR Nude mice, 12.5 mg/kg intraperitoneally once daily in 15% Solutol with 12.5 mg/kg ritonavir, versus vehicle
Description: About 1×10^7 HCC515 cells were injected into the flanks of female NCR Nude Mice. Tumor take was monitored visually and by palpation bi-weekly. Once tumors reached an average volume of 100 mm^3 mice were randomized into control and SMARCA2 degrader groups. Treatment cohorts were as follows: Vehicle was 15% Solutol in water together with 12.5 mg/kg of ritonavir as metabolic stabilizer. In the vehicle group, ten animals were injected with vehicle intraperitoneally. In the treatment group, ten animals were injected intraperitoneally once daily with 12.5 mg/kg of the SMARCA2 degrader Compound 101 in 15% Solutol in water together with 12.5 mg/kg of ritonavir as metabolic stabilizer.
Tumor diameter and volume were calculated based on caliper measurements of tumor length and […] using the formula tumor volume=(length×width^2)/2. Tumor volume and body weight were measured three times a week.

[6] = tested on: H2126; test: Cell proliferation (colony assay) IC50; format: cell-based; settings: Homo sapiens, NCI-H2126; H2126, mutant SMARCA4
[7] = tested on: H1793; test: Cell proliferation (colony assay) IC50; format: cell-based; settings: Homo sapiens, NCI-H1793; H1793, mutant SMARCA4
[8] = tested on: H441; test: Cell proliferation (colony assay) IC50; format: cell-based; settings: Homo sapiens, NCI-H441; H441, wild-type SMARCA4
[9] = tested on: H1792; test: Cell proliferation (colony assay) IC50; format: cell-based; settings: Homo sapiens, NCI-H1792; H1792, wild-type SMARCA4
Description: as §1

[10] = tested on: H1975; test: Cell proliferation (colony assay) IC50; format: cell-based; settings: Homo sapiens, NCI-H1975; H1975, wild-type SMARCA4; concentration at which 50% of cellular proliferation is inhibited
Description: as §1

[11] = tested on: H1693; test: Cell proliferation (colony assay) IC50; format: cell-based; settings: Homo sapiens, NCI-H1693; H1693, mutant SMARCA4
Description: as §1

[12] = tested on: HCC515; test: Cell proliferation (colony assay) IC50; format: cell-based; settings: Homo sapiens; HCC515, mutant SMARCA4
Description: as §1

[13] = tested on: H322; test: Cell proliferation (colony assay) IC50; format: cell-based; settings: NCI-H322; H322, mutant SMARCA4
Description: as §1

[14] = tested on: HCC44; test: Cell proliferation (colony assay) IC50; format: cell-based; settings: Homo sapiens; HCC44, wild-type SMARCA4
Description: as §1

[15] = tested on: H2122; test: Cell proliferation (colony assay) IC50; format: cell-based; settings: Homo sapiens, NCI-H2122; H2122, wild-type SMARCA4
Description: as §1

[16] = biological target: SMARCA2 (Homo sapiens, UniProt P51531); test: Immunohistochemistry of SMARCA2 in H1299 xenograft tumors; format: in vivo; set-up: from tissue; host or cells: H1299 xenograft tumour tissue from female NCR Nude mice; settings: NCR Nude mice, 200 mg/kg intraperitoneally once per day for four days
Sequence of SMARCA2 (P51531 whole entry): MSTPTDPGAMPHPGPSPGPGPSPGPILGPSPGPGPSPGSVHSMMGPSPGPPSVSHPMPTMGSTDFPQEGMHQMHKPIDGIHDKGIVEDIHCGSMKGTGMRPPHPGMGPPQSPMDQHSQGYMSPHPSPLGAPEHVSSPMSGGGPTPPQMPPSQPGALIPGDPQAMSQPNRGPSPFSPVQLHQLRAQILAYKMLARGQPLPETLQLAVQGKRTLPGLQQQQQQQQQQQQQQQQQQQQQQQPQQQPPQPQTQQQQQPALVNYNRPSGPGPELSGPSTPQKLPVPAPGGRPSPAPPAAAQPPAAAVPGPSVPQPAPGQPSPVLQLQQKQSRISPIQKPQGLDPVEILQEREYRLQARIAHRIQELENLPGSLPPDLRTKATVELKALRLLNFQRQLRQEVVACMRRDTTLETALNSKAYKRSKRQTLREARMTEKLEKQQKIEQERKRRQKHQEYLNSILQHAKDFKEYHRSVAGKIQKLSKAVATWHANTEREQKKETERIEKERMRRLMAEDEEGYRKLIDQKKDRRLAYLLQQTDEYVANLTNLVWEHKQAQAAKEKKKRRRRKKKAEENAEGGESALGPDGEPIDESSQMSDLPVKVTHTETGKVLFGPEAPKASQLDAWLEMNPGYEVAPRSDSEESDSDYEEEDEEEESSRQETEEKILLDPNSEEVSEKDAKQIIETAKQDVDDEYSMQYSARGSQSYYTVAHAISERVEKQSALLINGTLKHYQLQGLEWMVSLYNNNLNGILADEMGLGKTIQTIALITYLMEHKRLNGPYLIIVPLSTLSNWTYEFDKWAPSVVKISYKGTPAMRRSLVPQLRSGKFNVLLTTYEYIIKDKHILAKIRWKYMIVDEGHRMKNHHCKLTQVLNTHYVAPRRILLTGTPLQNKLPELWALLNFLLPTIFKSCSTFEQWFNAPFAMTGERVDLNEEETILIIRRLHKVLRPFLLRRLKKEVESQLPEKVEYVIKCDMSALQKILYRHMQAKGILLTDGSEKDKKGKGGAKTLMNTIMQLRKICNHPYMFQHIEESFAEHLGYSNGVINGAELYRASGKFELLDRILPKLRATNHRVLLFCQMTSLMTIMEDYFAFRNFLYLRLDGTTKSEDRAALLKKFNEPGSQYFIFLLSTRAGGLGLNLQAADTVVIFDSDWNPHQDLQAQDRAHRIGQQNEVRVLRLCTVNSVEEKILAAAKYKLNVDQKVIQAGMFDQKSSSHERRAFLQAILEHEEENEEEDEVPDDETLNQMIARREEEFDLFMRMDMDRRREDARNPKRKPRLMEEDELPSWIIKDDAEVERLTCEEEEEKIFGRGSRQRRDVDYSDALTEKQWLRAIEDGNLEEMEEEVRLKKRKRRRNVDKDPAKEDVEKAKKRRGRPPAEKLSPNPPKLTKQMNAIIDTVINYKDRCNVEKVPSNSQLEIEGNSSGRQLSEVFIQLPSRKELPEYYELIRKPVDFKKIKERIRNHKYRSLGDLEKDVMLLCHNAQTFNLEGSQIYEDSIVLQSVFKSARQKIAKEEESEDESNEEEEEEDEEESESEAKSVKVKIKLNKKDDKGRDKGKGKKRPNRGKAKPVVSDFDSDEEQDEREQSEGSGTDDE
Description: NCR Nude mice were injected with vehicle or SMARCA2 degrader Compound 101 (200 mg/kg) once per day for four consecutive days intraperitoneally. Tumor tissues were harvested 24 hours after the last dose and fixed in formalin for 24 hours, paraffin embedded, sectioned and stained according to standard procedures. Briefly, endogenous peroxidases were inactivated by 3% hydrogen peroxide. Non-specific signals were blocked using 3% BSA, 10% goat serum in 0.1% Triton X-100. After antigen retrieval in citrate buffer, slides were stained overnight at 4° C. using SMARCA2 antibodies (Cell Signaling, D9E8B1:2000). After overnight incubation, the slides were washed and incubated with secondary antibody (HRP-polymers, Biocare Medical) for 30 min at room temperature. The slides were washed three times and stained with DAB substrate (ThermoFisher Scientific). The slides were then counterstained with haematoxylin and mounted with mounting medium. The slides were imaged by Vectra microscope and the signal intensity and percentage of cells positive for SMARCA2 was quantified using Vectra 3.0.7 software.

`Nc1nnc(-c2ccccc2O)cc1N1CCN(Cc2ccc(OCCOCCNc3cccc4c3C(=O)N(C3CCC(=O)NC3=O)C4=O)c(F)c2)CC1` (stereo not drawn) [Compound 101] was tested, and the IC50 [1] was greater than 10 µM, the inhibition at 0.1 µM ([2]; read-out: inhibition at 100 nM in wild-type SMARCA4 cells (see FIG. 3D)) was less than 10% and the IC50 ([2]; wild-type SMARCA4 cells (Table 4), read-out: IC50, span over cell lines) was 0.97 to 10 µM. For the same compound, the “SMARCA4 Dmax (%)” value ([3]; H441, wild-type SMARCA4 cell line) was 37%, the DC50 ([3]; H441, wild-type SMARCA4 cell line, read-out: SMARCA4 DC50) was greater than 10 µM and the DC50 ([3]; H1792, wild-type SMARCA4 cell line, read-out: SMARCA4 DC50) was greater than 10 µM. For the same compound, the Dmax ([3]; H1975, H1792, H2122, H441 (Table 3), read-out: SMARCA4 Dmax, span over cell lines) was 38 to 50%, the “SMARCA4 degradation (western blot, in words)” value ([3]; H1975, H1792, H2122, H441, 0.001-10 μm, increasing concentrations) was “degraded SMARCA2 and SMARCA4” and the DC50 ([3]; H1975, wild-type SMARCA4 cell line, read-out: SMARCA4 DC50) was greater than 10 µM. For the same compound, the DC50 ([3]; H2122, wild-type SMARCA4 cell line, read-out: SMARCA4 DC50) was greater than 10 µM, the DC50 ([3]; H2228, wild-type SMARCA4 cell line, read-out: SMARCA4 DC50) was greater than 10 µM and the Dmax ([3]; HCC44, HCC44, wild-type SMARCA4 cell line, read-out: SMARCA4 Dmax (%)) was 39%. The DC50 ([3]; HCC44, wild-type SMARCA4 cell line, read-out: SMARCA4 DC50) was greater than 10 µM, the Dmax ([3]; HCC827, HCC827, wild-type SMARCA4 cell line, read-out: SMARCA4 Dmax (%)) was 39% and the DC50 ([3]; HCC827, wild-type SMARCA4 cell line, read-out: SMARCA4 DC50) was greater than 10 µM. For the same compound, the DC50 ([3]; HCC2279, wild-type SMARCA4 cell line, read-out: SMARCA4 DC50) was 0.56 µM, the Dmax ([3]; HCC2279, wild-type SMARCA4 cell line, read-out: SMARCA4 Dmax (%)) was 79% and the DC50 ([3]; HOP62, wild-type SMARCA4 cell line, read-out: SMARCA4 DC50) was 1.41 µM. The Dmax ([3]; HOP-62, HOP62, wild-type SMARCA4 cell line, read-out: SMARCA4 Dmax (%)) was 77%, the Dmax ([3]; NCI-H441, H441, wild-type SMARCA4 cell line, read-out: SMARCA4 Dmax (%)) was 50% and the Dmax ([3]; NCI-H1792, H1792, wild-type SMARCA4 cell line, read-out: SMARCA4 Dmax (%)) was 38%. It also gave a Dmax ([3]; NCI-H2122, H2122, wild-type SMARCA4 cell line, read-out: SMARCA4 Dmax (%)) of 47%, a Dmax ([3]; NCI-H2228, H2228, wild-type SMARCA4 cell line, read-out: SMARCA4 Dmax (%)) of 25% and a Dmax ([3]; wild-type SMARCA4 cells (Table 4), read-out: SMARCA4 Dmax, span over cell lines) of 38 to 79%. For the same compound, the DC50 ([3]; wild-type SMARCA4 cells (Table 4), upper end printed as above 10 μM, read-out: DC50 for SMARCA4 degradation, lower end of span over cell lines) was no less than 0.56 µM, the IC50 [4] was greater than 10 µM and the “tumor volume (in words)” value [5] was “substantial reduction in tumor volume”. For the same compound, the IC50 [6] was roughly 0.02 µM, the IC50 [7] was 0.9 µM and the IC50 [8] was greater than 10 µM. The IC50 [9] was 8.7 µM, the IC50 [10] was greater than 10 µM and the IC50 [11] was 0.141 µM. The IC50 [12] was 0.817 µM, the IC50 [13] was 0.093 µM and the IC50 [14] was 2.5 µM. The IC50 [15] was 2.6 µM, the “SMARCA2 in tumor tissue by immunohistochemistry (in words)” value [16] was “significant reduction in SMARCA2” and the “reduction in the percentage of SMARCA2 positive cells” value ([16]; tumor harvested 24 hours after last dose, versus vehicle) was “more than 50%”.
